The structures appear in SMILES notation. Square brackets hold non-standard residues; d marks the D form. Peptide text beside a SMILES is read from it. Hyp = O=C(O)[C@@H]1C[C@@H](O)CN1; 2Thi = N[C@@H](Cc1cccs1)C(=O)O

The subject of the assay is vasodepressor response of exogenous bradykinin. The assay can be described thus: Inhibition of the vasodepressor response to exogenous bradykinin in awake rats. The format is in vivo, Wistar rats. As for the experimental part: An adamantane acetic acid-modified bradykinin analog was synthesized by the solid-phase method described in Example 1. The analog designed by Stewart et al. was also synthesized and used as a control. The control (or model) and test analogs had the following structure: Model: D-Arg-Arg-Pro-Hyp-Gly-Thi-Ser-D-Phe-Thi-Arg Test: [formula] The antagonistic potency of the analogs was assessed by their ability to inhibit the vasodepressor response of exogenous bradykinin in awake rats.
Intact male Wistar rats (Charles River Breeding Laboratories, Wilmington, MA, U.S.A.) weighing 225-250 g were used and maintained on a regular Purina Rat Chow diet and tap water in a room at constant temperature (23 ± 1°C) with 12 hour dark/12 hour light cycles. One day before the experiment, the right carotid and the iliac artery in the rats were catheterized with polyethylene tubing (PE 50) under light ether anesthesia. A "Y" type connection was connected to the carotid artery catheter with two ends: one for injecting bradykinin and the other for infusing the bradykinin analogs. All of the catheters were externalized subcutaneously at the back of the neck. On the day of the experiment, the rats were maintained conscious and unrestrained in plastic cages. Arterial pressure (AP), mean arterial pressure (MAP) and heart rate (HR) were monitored through a Gould-Statham P23 ID pressure transducer (Gould, Cleveland, OH) connected to the iliac catheter and recorded on a Gould 2200S paper chart recorder. A half-hour period was allowed before the actual initiation of the experiment. […]
The effectiveness of each analog was tested by regression analysis of the data obtained in each rat, using a logarithmic transformation of the linear portion of each dose-response curve to calculate the ED₂₂ and ED₉₀ values. The comparison between the two analogs at the same dose was determined using the Students Nonpaired T Test. […]
The pA₂ is the most commonly used parameter to quantitatively express the potency of an antagonist. […]

As to `N=C(N)NCCC[C@@H](N)C(=O)N[C@@H](CCCNC(=N)N)C(=O)N1CCC[C@H]1C(=O)N1C[C@H](O)C[C@H]1C(=O)NCC(=O)N[C@@H](Cc1cccs1)C(=O)N[C@@H](CO)C(=O)N[C@H](Cc1ccccc1)C(=O)N[C@@H](Cc1cccs1)C(=O)N[C@@H](CCCNC(=N)N)C(=O)O` [Model Analog, D-Arg-Arg-Pro-Hyp-Gly-Thi-Ser-D-Phe-Thi-Arg] (H-[dR]RP[Hyp]G[2Thi]S[dF][2Thi]R-OH), the ED₂₂ (dose of analog infused (intracarotid) which inhibits 22% of the vasodepressor response to 250 ng of BK, conscious rats pretreated with enalapril 1 mg/kg, 7 rats, mean ± SE) amounted to 1.49 ± 0.29 µg/min. The ED₉₀ (dose of analog infused (intracarotid) which inhibits 90% of the vasodepressor response to 250 ng of BK, conscious rats pretreated with enalapril 1 mg/kg, 7 rats, mean ± SE) was 142.50 ± 26.44 µg/min. Further, the “pA₂ (anti-vasodepressor potency)” value (negative logarithm of ED value (ED₂₂) divided by estimated volume of distribution (67ml/kg)) is 7.17±0.11.

Values taken from patent publication EP0502987B1, “ACYLATED BRADYKININ ANTAGONISTS AND USES THEREFOR” (TRUSTEES OF BOSTON UNIVERSITY, priority 1989, dated 1994).
